Patent US6514538B1, “External preparations for skin whitening” (Shiseido Company, Ltd., priority 1999, dated 2003)

System: skin of an inner lateral part of the upper arm of testees exposed to summer sunlight
Test: Whitening effect testing (lotion on sun-exposed skin of testees)
Assay type: in vivo, human
Details: blend ratio 1.0 wt %, applied twice a day for 4 weeks
Protocol: 66 testees were exposed to summer sunlight for 4 hours (2 hours a day for 2 days) and the skin of an inner lateral part of their upper arm was used as the subject of the test. […] The panel was divided into 11 groups with 6 persons in each group. Testing was conducted using lotion with the following formulas. [table] The water phase and the alcohol phase were prepared separately and then solubilized. The hypochromic effect after the application was evaluated based on the criteria below. ⊚: Very effective or effective on 80% or more of the testees ◯: Very effective or effective on 50% to less than 80% of the testees Δ: Very effective or effective on 30% to less than 50% testees ×: Very effective or effective on less than 30% of the testees Samples were prepared with the blend compositions described in the aforementioned test method, and the drugs listed in Table 2 were used to compare the whitening effect.

Oc1ccc(O)cc1 [Hydroquinone]
Effect (hypochromic effect after the application): Δ (Very effective or effective on 30% to less than 50% testees)
